pEC50: −log10 of the molar value. Like-named read-outs stand apart in the source and are kept apart here.
Assays:
Assay type in all cases: biochemical
[1] = target: T1, human PPARδ-LBD (Homo sapiens, UniProt Q03181); test: TR-FRET coactivator recruitment assay, PPARδ-LBD; settings: for pEC50: Buffer A; for Approximate potency order in the recruitment of four coactivators, PPARδ: evaluated based on EC50 values, PGC, PGC1α, SRC, SRC1, TRAP, TRAP220; for recruitment of coactivators to PPARδ-LBD (in words): four coactivator peptides
T1 construct: PPARδ-LBD (AAs 170–441); made in house
T1 sequence (Q03181 170-441): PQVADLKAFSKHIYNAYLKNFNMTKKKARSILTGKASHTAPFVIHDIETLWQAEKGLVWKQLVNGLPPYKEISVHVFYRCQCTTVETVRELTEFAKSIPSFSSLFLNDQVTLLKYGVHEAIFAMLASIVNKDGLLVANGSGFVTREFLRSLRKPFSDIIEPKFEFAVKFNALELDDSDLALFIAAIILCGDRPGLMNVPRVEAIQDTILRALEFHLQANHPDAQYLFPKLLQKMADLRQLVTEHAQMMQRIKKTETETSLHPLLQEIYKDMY

[2] = target: T2, human PPARα-LBD (Homo sapiens, UniProt Q07869); test: TR-FRET coactivator recruitment assay, PPARα-LBD; settings: for Approximate potency order in the recruitment of four coactivators, PPARα: evaluated based on EC50 values, PGC, PGC1α, SRC, SRC1, TRAP, TRAP220; for pEC50: Buffer A
T2 construct: Human PPARα-LBD [amino acids (AAs) 200–468]; made in house
T2 sequence (Q07869 200-468): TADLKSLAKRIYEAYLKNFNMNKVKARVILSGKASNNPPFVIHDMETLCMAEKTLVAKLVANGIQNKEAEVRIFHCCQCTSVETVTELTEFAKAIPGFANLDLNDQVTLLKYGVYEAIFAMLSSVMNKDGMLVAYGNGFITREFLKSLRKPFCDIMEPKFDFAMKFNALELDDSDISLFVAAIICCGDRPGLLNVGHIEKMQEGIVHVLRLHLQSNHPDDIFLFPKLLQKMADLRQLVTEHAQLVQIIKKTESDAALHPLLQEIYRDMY

[3] = target: T3, human PPARγ-LBD (Homo sapiens, UniProt P37231); test: TR-FRET coactivator recruitment assay, PPARγ-LBD; settings: for pEC50: Buffer A; for Approximate potency order in the recruitment of four coactivators, PPARγ: evaluated based on EC50 values, PGC, PGC1α, SRC, SRC1, TRAP, TRAP220
T3 construct: PPARγ-LBD (AAs 203–477 in isoform 1); made in house
T3 sequence (P37231 203-477 isoform P37231-2): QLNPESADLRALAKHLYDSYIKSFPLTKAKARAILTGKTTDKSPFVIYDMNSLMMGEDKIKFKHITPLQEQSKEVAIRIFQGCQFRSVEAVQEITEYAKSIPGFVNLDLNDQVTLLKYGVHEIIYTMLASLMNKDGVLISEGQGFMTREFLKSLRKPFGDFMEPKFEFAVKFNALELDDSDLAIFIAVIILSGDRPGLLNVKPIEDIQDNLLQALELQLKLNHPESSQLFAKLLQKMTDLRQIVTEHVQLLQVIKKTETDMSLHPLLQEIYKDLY

[4] = CBP peptide recruitment, read-out: PPARδ CBP EC50
[5] = PGC1α peptide recruitment, read-out: PPARδ PGC1α EC50
[6] = SRC1 peptide recruitment, read-out: PPARδ SRC1 EC50
[7] = TRAP220 peptide recruitment, read-out: PPARδ TRAP220 EC50
[8] = read-out: PPARδ CBP % of GW501516 max response
[9] = read-out: PPARδ PGC1α % of GW501516 max response
[10] = read-out: PPARδ SRC1 % of GW501516 max response
[11] = read-out: PPARδ TRAP220 % of GW501516 max response
[12] = read-out: PPARα CBP % of GW7647 max response
[13] = read-out: PPARα PGC1α % of GW7647 max response
[14] = read-out: PPARα SRC1 % of GW7647 max response
[15] = read-out: PPARα TRAP220 % of GW7647 max response
[16] = CBP peptide recruitment, read-out: PPARγ CBP EC50
[17] = PGC1α peptide recruitment, read-out: PPARγ PGC1α EC50
[18] = SRC1 peptide recruitment, read-out: PPARγ SRC1 EC50
[19] = TRAP220 peptide recruitment, read-out: PPARγ TRAP220 EC50
[20] = read-out: PPARγ CBP % of GW1929 max response
[21] = read-out: PPARγ PGC1α % of GW1929 max response
[22] = read-out: PPARγ SRC1 % of GW1929 max response
[23] = read-out: PPARγ TRAP220 % of GW1929 max response
[24] = CBP peptide recruitment, read-out: PPARα CBP EC50
[25] = PGC1α peptide recruitment, read-out: PPARα PGC1α EC50
[26] = SRC1 peptide recruitment, read-out: PPARα SRC1 EC50
[27] = TRAP220 peptide recruitment, read-out: PPARα TRAP220 EC50

Row | SMILES | pEC50 [1, 4] | pEC50 [1, 5] | pEC50 [1, 6] | pEC50 [1, 7] | Approximate potency order in the recruitment of four coactivators, PPARδ [1] | Emax [1, 8] | Emax [1, 9] | Emax [1, 11] | Approximate potency order in the recruitment of four coactivators, PPARα [2] | Emax [2, 12] | Emax [2, 13] | Emax [2, 14] | Emax [2, 15] | pEC50 [3, 16] | pEC50 [3, 17] | pEC50 [3, 18] | pEC50 [3, 19] | Approximate potency order in the recruitment of four coactivators, PPARγ [3] | Emax [3, 20] | Emax [3, 21] | other results
1 | CC[C@@H](Oc1cccc(CN(CCCOc2ccc(OC)cc2)c2nc3ccccc3o2)c1)C(=O)O [Pemafibrate, pemafibrate] | 5.06 | 5.32 | 4.83 | 5.13 | PGC>CBP=TRAP>SRC | 74.6% | 91.1% | 77.3% | CBP>PGC=SRC>TRAP | 96.7% | 74.5% | 101% | 102% | 5.25 | 5.10 | 4.86 | 5.25 | CBP=TRAP>PGC>SRC | 80.3% | 50.8% | recruitment of coactivators to PPARδ-LBD (in words) [1]: effective; Emax [1, 10]: 58.6%; Emax [3, 22]: 27.7%; Emax [3, 23]: 82.5%
2 | CCO[C@@H](Cc1ccc(OCCn2c(C)ccc2-c2ccc(SC)cc2)cc1)C(=O)O [Saroglitazar, saroglitazar] | < 4.00 | 5.41 | < 4.00 | < 4.00 | Faint activation | 6.72% | 8.94% | 2.5% | CBP>TRAP>PGC=SRC | 80.2% | 58.3% | 54.2% | 64.2% | 5.73 | 5.61 | 5.26 | 5.07 | CBP>PGC>TRAP=SRC | 85% | 50.1% | pEC50 [2, 24]: 6.55; pEC50 [2, 25]: 6.12; pEC50 [2, 26]: 6.09; pEC50 [2, 27]: 6.17; Emax [3, 22]: 40%; Emax [3, 23]: 52.4%
3 | CCO[C@H](COc1ccc(C(F)(F)F)cc1)CSc1ccc(OCC(=O)O)c(C)c1 [Seladelpar, seladelpar] | 7.33 | 7.50 | 7.13 | 7.22 | PGC>CBP>SRC=TRAP | 120% | 113% | 136% | CBP>PGC>SRC=TRAP | 49.2% | 34.3% | 15.5% | 11% | 4.97 | 5.30 | 4.65 | 4.87 | PGC=CBP>TRAP>SRC | 45.9% | 49.8% | recruitment of coactivators to PPARδ-LBD (in words) [1]: effective; pEC50 ([1]; range over PGC1α, CBP, SRC1, TRAP220, read-out: EC50 values on the four coactivators, PPARδ): 7.13 to 7.50; extent of recruitment of four coactivators to PPARδ-LBD ([1]; range over four coactivators, 100% = 0.1 µM GW501516): 113–146%; Emax [1, 10]: 146%; pEC50 [2, 24]: 5.92; pEC50 [2, 25]: 5.69; pEC50 [2, 26]: 5.72; pEC50 [2, 27]: 5.74; Emax [3, 22]: 11.9%; Emax [3, 23]: 20.5%

Source: publication PMC10967972, “Different Coactivator Recruitment to Human PPARα/δ/γ Ligand-Binding Domains by Eight PPAR Agonists to Treat Nonalcoholic Fatty Liver Disease” (Biomedicines, 2024)
